According to ChEMBL document CHEMBL4411318, “Discovery of a Series of 2'-α-Fluoro,2'-β-bromo-ribonucleosides and Their Phosphoramidate Prodrugs as Potent Pan-Genotypic Inhibitors of Hepatitis C Virus” (J Med Chem, 2019):

What was measured:
[1] = system: PBMC; assay: (§1) Cytotoxicity against human PBMC assessed reduction in cell viability after 5 days by MTT assay; type: cell-based; conditions: pbmc, 120 h
[2] = Cytotoxicity against human HuH7 cells assessed reduction in cell viability after 3 to 5 days by MTT assay; type: cell-based, Huh-7
[3] = system: CCRF-CEM; assay: (§2) Cytotoxicity against human CCRF-CEM assessed reduction in cell viability after 4 days by MTT assay; type: cell-based; conditions: ccrf-cem, 96 h
[4] = target: RNA-directed RNA polymerase (Hepacivirus hominis) (UniProt O39930); conditions: Hepatitis C virus subtype 1b
RNA-directed RNA polymerase (Hepacivirus hominis), sequence (O39930 1-591): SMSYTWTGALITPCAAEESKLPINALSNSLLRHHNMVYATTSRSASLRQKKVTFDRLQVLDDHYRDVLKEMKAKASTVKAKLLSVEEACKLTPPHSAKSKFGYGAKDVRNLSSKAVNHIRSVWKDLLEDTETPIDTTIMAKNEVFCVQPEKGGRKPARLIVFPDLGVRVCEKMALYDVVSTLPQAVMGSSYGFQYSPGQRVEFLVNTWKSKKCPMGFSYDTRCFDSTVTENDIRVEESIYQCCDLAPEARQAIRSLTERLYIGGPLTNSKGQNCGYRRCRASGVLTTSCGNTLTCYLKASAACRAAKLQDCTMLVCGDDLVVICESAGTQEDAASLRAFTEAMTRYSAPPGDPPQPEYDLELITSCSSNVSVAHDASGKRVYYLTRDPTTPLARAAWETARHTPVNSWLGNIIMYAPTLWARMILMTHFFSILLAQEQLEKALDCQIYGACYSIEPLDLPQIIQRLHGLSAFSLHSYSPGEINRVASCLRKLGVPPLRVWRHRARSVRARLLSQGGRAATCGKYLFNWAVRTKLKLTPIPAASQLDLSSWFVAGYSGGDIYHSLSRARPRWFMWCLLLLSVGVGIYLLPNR
Description: Inhibition of NS5B polymerase in wild type HCV genotype 1b infected in human Huh7 replicon cells after 5 days by RT-PCR assay

[5] = Stability in human plasma assessed as compound remaining at 2 uM after 120 mins by LC/MS/MS analysis; type: ADME, cell-free; conditions: read-out: Stability
[6] = Mitochondrial toxicity in human HepG2 cells assessed as reduction in cell viability after 3 days in presence of glucose supplemented media by ATP depletion assay; type: cell-based
[7] = in vitro; conditions: human, liver microsomes
Description: Half life in human liver microsomes in presence of NADPH regenerating system by LC/MS/MS analysis

[8] = as §1; type: cell-based; conditions: PBMC
[9] = system: cytochrome c oxidase subunit 2 DNA level; assay: Mitochondrial toxicity in human HepG2 cells assessed as inhibition of cytochrome c oxidase subunit 2 DNA level at 50 uM followed by medium plus drugs replenishment every 3 to 4 days for 14 days relative to control; type: cell-based
[10] = in vitro; conditions: human, liver microsomes; remark: listed apart in the source
Description: Stability in human liver microsomes assessed as compound remaining in absence of NADPH regenerating system after 60 mins by LC/MS/MS analysis

[11] = Half life in human intestinal microsomes by LC/MS/MS analysis; type: ADME, Intestine, Microsome
[12] = target: RNA-directed RNA polymerase (Hepacivirus hominis) (UniProt O39930); assay: Inhibition of NS5B polymerase in HCV genotype 1b/5a chimeric replicon infected in human HuH7 replicon cells after 5 days by RT-PCR analysis; type: cell-based
[13] = system: HepG2; assay: Mitochondrial toxicity in human HepG2 cells assessed as lactic acid production at 12.5 uM followed by medium plus drugs replenishment every 3 to 4 days for 14 days relative to control; type: cell-based; conditions: hepg2, 336 h
[14] = target: RNA-directed RNA polymerase (Hepacivirus hominis) (UniProt O39930); assay: Inhibition of NS5B polymerase in HCV genotype 2a infected in human HuH7 replicon cells after 5 days by RT-PCR analysis; type: cell-based; conditions: Hepatitis C virus subtype 2a
[15] = Drug uptake in Beagle dog liver at 10 mg/kg, po measured up to 4 hrs by LC-MS/MS analysis; conditions: in vivo, BLD = below limit of detection
[16] = Mitochondrial toxicity in human HepG2 cells assessed as reduction in cell viability after 14 days in presence of galactose supplemented media by ATP depletion assay; type: cell-based
[17] = Stability in simulated intestinal fluid after 24 hrs by LC/MS/MS analysis; type: ADME; conditions: simulated gi fluid
[18] = in vitro; conditions: human, liver microsomes; remark: listed apart in the source
Description: Intrinsic clearance in human liver measured from intrinsic clearance in human liver microsomes in presence of NADPH regenerating system by LC/MS/MS analysis

[19] = as §2; type: cell-based; conditions: CCRF-CEM cells
[20] = in vitro; conditions: human, liver microsomes; remark: listed apart in the source
Description: Intrinsic clearance in human liver microsomes in presence of NADPH regenerating system by LC/MS/MS analysis

[21] = system: nuclear ribosomal-DNA level; assay: Mitochondrial toxicity in human HepG2 cells assessed as inhibition of nuclear ribosomal-DNA level at 12.5 uM followed by medium plus drugs replenishment every 3 to 4 days for 14 days relative to control; type: cell-based
[22] = system: Bone marrow cell; assay: Cytotoxicity against human bone marrow cells assessed as inhibition of burst forming unit-erythroid after 14 days by FACS analysis; type: cell-based; conditions: 336 h
[23] = target: RNA-directed RNA polymerase (Hepacivirus hominis) (UniProt O39930); assay: Inhibition of NS5B polymerase in HCV genotype 1b/4a chimeric replicon infected in human HuH7 replicon cells after 5 days by RT-PCR analysis; type: cell-based
[24] = Cardiotoxicity against human embryonic stem cell-induced ventricular cardiomyocytes administered on day 7 and measured on day 10 after 30 mins incubation by CellTiter Glo assay; type: toxicity, cell-based, Cardiac muscle cell
[25] = system: nuclear ribosomal-DNA level; assay: in vitro; conditions: human, HepG2 cells
[26] = system: nuclear ribosomal-DNA level; assay: Mitochondrial toxicity in human HepG2 cells assessed as inhibition of nuclear ribosomal-DNA level at 50 uM followed by medium plus drugs replenishment every 3 to 4 days for 14 days relative to control; type: cell-based
[27] = system: nuclear ribosomal-DNA level; assay: Mitochondrial toxicity in human HepG2 cells assessed as inhibition of nuclear ribosomal-DNA level at 25 uM followed by medium plus drugs replenishment every 3 to 4 days for 14 days relative to control; type: cell-based
[28] = system: HepG2; assay: Mitochondrial toxicity in human HepG2 cells assessed as lactic acid production at 50 uM followed by medium plus drugs replenishment every 3 to 4 days for 14 days relative to control; type: cell-based; conditions: hepg2, 336 h
[29] = Prodrug activation in Beagle dog liver assessed as assessed as formation of triphosphate form parent nucleoside at 10 mg/kg, po measured at 4 hrs by LC-MS/MS analysis; conditions: in vivo
[30] = system: HepG2; assay: Mitochondrial toxicity in human HepG2 cells assessed as lactic acid production at 25 uM followed by medium plus drugs replenishment every 3 to 4 days for 14 days relative to control; type: cell-based; conditions: hepg2, 336 h
[31] = Drug metabolism in human HuH7 cells assessed as Tmax for NTP formation at 10 uM after 2 to 48 hrs by LC-MS/MS analysis; type: ADME, cell-based; conditions: huh-7, 10 µM
[32] = system: cytochrome c oxidase subunit 2 DNA level; assay: Mitochondrial toxicity in human HepG2 cells assessed as inhibition of cytochrome c oxidase subunit 2 DNA level at 12.5 uM followed by medium plus drugs replenishment every 3 to 4 days for 14 days relative to control; type: cell-based
[33] = Mitochondrial toxicity in human HepG2 cells assessed as reduction in cell viability after 14 days in presence of glucose supplemented media by ATP depletion assay; type: cell-based
[34] = Mitochondrial toxicity in human HepG2 cells assessed as reduction in cell viability after 3 days in presence of galactose supplemented media by ATP depletion assay; type: cell-based
[35] = system: Bone marrow cell; assay: Cytotoxicity against human bone marrow cells assessed as inhibition of colony-forming unit-granulocyte after 14 days by FACS analysis; type: cell-based; conditions: 336 h
[36] = Cytotoxicity in human HepaRG cells assessed as reduction in cell viability incubated for 14 days by CellTiter-Glo assay; type: cell-based
[37] = Drug metabolism in human primary hepatocytes assessed as Tmax for NTP formation at 10 uM after 2 to 48 hrs by LC-MS/MS analysis; type: ADME, cell-based, Hepatocyte
[38] = system: cytochrome c oxidase subunit 2 DNA level; assay: Mitochondrial toxicity in human HepG2 cells assessed as inhibition of cytochrome c oxidase subunit 2 DNA level followed by medium plus drugs replenishment every 3 to 4 days for 14 days relative to control; type: cell-based
[39] = target: RNA-directed RNA polymerase (Hepacivirus hominis) (UniProt O39930); conditions: genotype 1b/3a
Description: Inhibition of NS5B polymerase in HCV genotype 1b/3a chimeric replicon infected in human HuH7 replicon cells after 5 days by RT-PCR analysis

[40] = Nephrotoxicity in human HK2 cells after 72 hrs by Hoechst 33342/HCS live/dead green dye-based assay; type: toxicity, cell-based, HK-2
[41] = system: nuclear ribosomal-DNA level; assay: in vitro; conditions: human, HepG2 cells; remark: listed apart in the source
[42] = system: cytochrome c oxidase subunit 2 DNA level; assay: Mitochondrial toxicity in human HepG2 cells assessed as inhibition of cytochrome c oxidase subunit 2 DNA level at 10 uM followed by medium plus drugs replenishment every 3 to 4 days for 14 days relative to control; type: cell-based
[43] = system: HepG2; assay: Mitochondrial toxicity in human HepG2 cells 10 uM followed by medium plus drugs replenishment every 3 to 4 days for 14 days relative to control; type: cell-based; conditions: hepg2, 336 h

SMILES	CC50 [2] [µM]	EC90 [4] [µM]	CC50 at 120 h [8] [µM]	inhibition at 336 h, 50 µM [9] [%]	Activity [13] [%]	EC90 [14] [µM]	CC50 at 96 h [19] [µM]	inhibition at 336 h, 12.5 µM [21] [%]	EC90 [23] [µM]	IC50 at 14 days [25] [µM]	inhibition at 336 h, 50 µM [26] [%]	Activity [28] [%]	inhibition at 336 h, 12.5 µM [32] [%]	IC50 at 14 days [38] [µM]	other results
C[C@@]1(O)[C@H](O)[C@@H](CO)O[C@H]1n1ccc(N)nc1=O	> 100	9.9													CC50 [1]: 60 µM; CC50 [3]: 22 µM
CC(C)OC(=O)[C@H](C)N[P@](=O)(OC[C@H]1O[C@@H](n2ccc(=O)[nH]c2=O)[C@@](F)(Br)[C@@H]1O)Oc1ccccc1 (single isomer, unassigned)	> 10	0.074 to 0.28	> 100	58	90	0.077	> 100	11	0.13	32	72	220	23		remaining at 2 h, 2 µM [5]: 90%; IC50 at 3 days [6]: > 100 µM; half-life [7]: 0.328 h; remaining at 1 h [10]: 3.7%; half-life [11]: > 2.42 h; EC90 [12]: 0.083 µM; Drug uptake [15]: Bld; IC50 at 14 days [16]: > 100 µM; Stability [17]: Stable; CLint scaled [18]: 63.2 mL/min/kg; microsomal CLint [20]: 70.2 µL/min/mg; IC50 [22]: 72 µM; IC50 at 3 days [24]: > 100 µM; inhibition at 336 h, 25 µM [27]: 39%; Drug metabolism [29]: 20130 ng/mL; Activity [30]: 120%; Tmax [31]: 12 h; IC50 at 14 days [33]: > 100 µM; IC50 at 3 days [34]: > 100 µM; IC50 [35]: 76 µM
CC(C)OC(=O)[C@H](C)N[P@](=O)(OC[C@H]1O[C@@H](n2ccc(=O)[nH]c2=O)[C@](C)(F)[C@@H]1O)Oc1ccccc1 [SOFOSBUVIR]	> 100	0.15 to 0.9	> 100	44	79	0.13	> 100	3.1	0.15	45	58	180	6.7	> 50	CC50 at 336 h [36]: 44 µM; Tmax [37]: 12 h; EC90 [39]: 0.37 µM; CC50 at 72 h [40]: > 300 µM; CC50 at 0.5 h [24]: > 100 µM
Nc1ccn([C@H]2CC[C@@H](CO)O2)c(=O)n1 [ZALCITABINE]										< 10				< 10	inhibition at 336 h, 10 µM [41]: 50%; inhibition at 336 h, 10 µM [42]: 84%; Activity [43]: 200%
